These results are taken from patent US20200000752A1, “Method for Treating Epilepsy” (Vanderbilt University, priority 2016, published 2020).

Data set [1] deals with T1, CYP 1A2 (Homo sapiens, UniProt P05177). Description: CYP inhibition, 1A2.
The target in data set [2] is T2, CYP 2C19 (Homo sapiens, UniProt P33261).
The target of the next data set is CYP 2C8 (Homo sapiens, UniProt P10632). Kind of data set: biochemical.
Data set [3] concerns the target T1, CYP 1A2. Kind of data set: biochemical.
For a further data set, the system named is Scn1a^+/− mice. The following applies: for Number SWDs: SWDs over 1 sec, 30 min after PTZ 50 mg/kg, n=2, celastrol 0.3 mg/kg intermittent (8th day of drug holiday), diazepam 0.3 mg/kg, stiripentol 150 mg/kg, saline 21.
In the next data set the target is CYP 2C9 (Homo sapiens, UniProt P11712). Description: biochemical.
Chain of CYP 2C9 (P11712 whole entry): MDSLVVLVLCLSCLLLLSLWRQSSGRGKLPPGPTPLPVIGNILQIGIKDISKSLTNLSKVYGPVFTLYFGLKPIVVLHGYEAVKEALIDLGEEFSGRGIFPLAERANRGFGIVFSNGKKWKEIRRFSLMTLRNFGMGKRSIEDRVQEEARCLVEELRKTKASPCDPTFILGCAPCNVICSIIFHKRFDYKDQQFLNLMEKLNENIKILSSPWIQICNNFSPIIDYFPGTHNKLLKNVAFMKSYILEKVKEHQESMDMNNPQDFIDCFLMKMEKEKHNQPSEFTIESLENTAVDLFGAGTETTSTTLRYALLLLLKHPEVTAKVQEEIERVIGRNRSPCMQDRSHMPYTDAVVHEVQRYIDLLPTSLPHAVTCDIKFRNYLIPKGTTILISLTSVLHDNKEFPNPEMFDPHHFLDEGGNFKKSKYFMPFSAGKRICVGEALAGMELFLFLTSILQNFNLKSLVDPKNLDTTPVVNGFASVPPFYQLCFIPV
Data set [4] deals with cytochrome P450 enzymes (CYPs). The following applies: cited from earlier work.
In another data set the target is CYP 2B6 (Homo sapiens, UniProt P20813). Description: biochemical.
Chain of CYP 2B6 (P20813 whole entry): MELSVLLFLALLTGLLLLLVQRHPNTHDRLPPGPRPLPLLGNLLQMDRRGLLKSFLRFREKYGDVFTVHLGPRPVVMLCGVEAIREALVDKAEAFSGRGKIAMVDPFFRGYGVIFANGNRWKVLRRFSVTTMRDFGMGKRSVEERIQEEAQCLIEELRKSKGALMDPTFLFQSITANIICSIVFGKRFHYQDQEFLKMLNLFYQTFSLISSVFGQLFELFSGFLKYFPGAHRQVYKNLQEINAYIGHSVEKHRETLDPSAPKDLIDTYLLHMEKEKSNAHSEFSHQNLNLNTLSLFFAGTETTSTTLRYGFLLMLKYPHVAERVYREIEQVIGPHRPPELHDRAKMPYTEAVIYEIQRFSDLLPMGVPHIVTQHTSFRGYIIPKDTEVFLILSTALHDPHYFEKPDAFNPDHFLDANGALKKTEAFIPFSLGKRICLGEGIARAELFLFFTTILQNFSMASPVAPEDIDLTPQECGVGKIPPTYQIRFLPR
The target of data set [5] is T2, CYP 2C19. Description: biochemical.
A further data set addresses CYP 2D6 (Homo sapiens, UniProt P10635). Kind of data set: biochemical.
In another data set the test system is MDCKII cells. Kind of data set: MDCKII bidirectional assay. The format is in vitro ADME. The source says:
MDCKII bidirectional assay was run in collaboration with Dr. Shaun Stauffer in Vanderbilt Institute of Chemical Biology (VICB) synthesis core who is a consultant on this project.

pIC50: −log10 of the molar value. “Also recorded” adds a separate entry of the source.

T2 sequence (P33261 whole entry): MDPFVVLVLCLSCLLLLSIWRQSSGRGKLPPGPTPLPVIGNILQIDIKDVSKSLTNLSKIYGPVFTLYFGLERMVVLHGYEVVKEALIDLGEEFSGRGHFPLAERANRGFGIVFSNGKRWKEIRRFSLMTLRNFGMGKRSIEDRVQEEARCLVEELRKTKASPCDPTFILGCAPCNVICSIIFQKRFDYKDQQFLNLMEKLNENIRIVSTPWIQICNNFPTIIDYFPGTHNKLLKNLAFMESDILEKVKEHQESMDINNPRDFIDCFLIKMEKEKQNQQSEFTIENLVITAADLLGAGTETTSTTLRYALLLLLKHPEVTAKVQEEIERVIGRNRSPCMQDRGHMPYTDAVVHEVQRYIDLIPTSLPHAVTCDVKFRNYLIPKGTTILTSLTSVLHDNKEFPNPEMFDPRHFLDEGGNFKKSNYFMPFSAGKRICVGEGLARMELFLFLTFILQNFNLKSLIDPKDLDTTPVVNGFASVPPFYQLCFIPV
T1 sequence (P05177 whole entry): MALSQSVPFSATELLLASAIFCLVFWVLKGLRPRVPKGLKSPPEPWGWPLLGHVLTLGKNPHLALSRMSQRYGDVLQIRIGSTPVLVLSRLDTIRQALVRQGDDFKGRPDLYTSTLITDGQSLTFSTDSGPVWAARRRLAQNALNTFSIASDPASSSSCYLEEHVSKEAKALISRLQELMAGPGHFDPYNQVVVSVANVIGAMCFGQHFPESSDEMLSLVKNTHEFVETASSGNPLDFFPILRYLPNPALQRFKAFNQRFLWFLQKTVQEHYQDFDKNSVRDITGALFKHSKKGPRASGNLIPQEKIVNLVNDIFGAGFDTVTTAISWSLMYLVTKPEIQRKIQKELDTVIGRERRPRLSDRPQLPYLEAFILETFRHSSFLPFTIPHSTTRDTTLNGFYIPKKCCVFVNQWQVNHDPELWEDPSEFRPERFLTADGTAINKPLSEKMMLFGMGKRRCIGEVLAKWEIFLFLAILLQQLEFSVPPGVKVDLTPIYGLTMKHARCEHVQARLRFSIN
Chain of CYP 2C8 (P10632 whole entry): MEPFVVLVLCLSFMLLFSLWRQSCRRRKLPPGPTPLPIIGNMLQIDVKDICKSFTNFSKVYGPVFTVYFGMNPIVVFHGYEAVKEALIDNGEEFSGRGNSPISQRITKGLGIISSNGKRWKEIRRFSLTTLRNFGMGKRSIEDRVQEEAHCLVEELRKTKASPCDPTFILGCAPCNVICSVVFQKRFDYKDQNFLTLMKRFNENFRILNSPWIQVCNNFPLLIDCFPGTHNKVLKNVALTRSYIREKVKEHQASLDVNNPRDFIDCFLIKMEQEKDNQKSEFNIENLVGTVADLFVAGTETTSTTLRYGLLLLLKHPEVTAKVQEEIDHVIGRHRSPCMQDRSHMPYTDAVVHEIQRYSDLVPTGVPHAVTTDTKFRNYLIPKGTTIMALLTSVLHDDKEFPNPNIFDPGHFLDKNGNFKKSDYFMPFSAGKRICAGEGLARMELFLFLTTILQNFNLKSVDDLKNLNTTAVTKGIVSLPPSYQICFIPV
Chain of CYP 2D6 (P10635 whole entry): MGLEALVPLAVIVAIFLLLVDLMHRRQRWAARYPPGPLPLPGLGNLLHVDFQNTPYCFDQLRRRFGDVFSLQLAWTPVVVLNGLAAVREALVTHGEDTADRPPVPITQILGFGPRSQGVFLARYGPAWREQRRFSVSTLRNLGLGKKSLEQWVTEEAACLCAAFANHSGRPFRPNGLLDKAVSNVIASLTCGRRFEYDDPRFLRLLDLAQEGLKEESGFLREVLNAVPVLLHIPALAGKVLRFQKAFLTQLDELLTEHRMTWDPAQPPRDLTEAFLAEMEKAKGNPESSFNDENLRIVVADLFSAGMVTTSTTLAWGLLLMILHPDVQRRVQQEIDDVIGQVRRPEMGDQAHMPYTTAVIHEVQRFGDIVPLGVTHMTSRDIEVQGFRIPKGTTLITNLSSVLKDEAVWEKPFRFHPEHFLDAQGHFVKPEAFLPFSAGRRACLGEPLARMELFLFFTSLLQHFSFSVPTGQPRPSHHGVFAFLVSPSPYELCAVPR

A word on the pIC50: it is the negative decadic logarithm of the IC50, by convention in mol/L. Read a low pIC50 as a high IC50. With `CC(C)(C)C(O)/C=C/c1ccc2c(c1)OCO2` (stereo not shown) [Stiripentol], the “inhibition of 1A2, in words” value against CYP 1A2 [1] is listed as “potent inhibitor; also recorded: very potent inhibitor”. The “inhibition of 2C19, in words” value against CYP 2C19 [2] was “potent inhibitor; also recorded: very potent inhibitor”. Also, the pIC50 against CYP 2C8 is less than 5.00; on CYP 1A2 [3], 5.90; at CYP 2C9, less than 5.00; against CYP 2B6 it was 5.05; at CYP 2C19 [5], 5.74; against CYP 2D6, less than 5.00. Besides, the “Number SWDs” value in the data set on Scn1a^+/− mice came out at 11. Besides, in the data set with Scn1a^+/− mice (mouse, in vivo, 300 mg/kg), the appearance and mortality result is “appeared lethargic and had increased mortality”. Further, the “CYP inhibition as reported in the literature” value in [4] was “inhibit CYPs including 1A2, 2C9, 2C19, 2D6 and 3A4”.

As for `CN1C(=O)CN=C(c2ccccc2)c2cc(Cl)ccc21` [Diazepam], the “Number SWDs” value with Scn1a^+/− mice stood at 8.

For the compound `COc1cc(/C=C/C(=O)CC(=O)/C=C/c2ccc(O)c(OC)c2)ccc1O` [curcumin, reference compound], the “permeability in MDCK II bidirectional assay, in words” value in the data set with MDCKII cells is “impermeable”.
